Experimental data: ChEMBL document CHEMBL3085703, “Synthetic cannabinoid quinones: preparation, in vitro antiproliferative effects and in vivo prostate antitumor activity” (Eur J Med Chem, 2013)
Activity calls are given as the source filed them. The calls are words filed in the database; no cut-off is given here.

What was measured:
[1] = test system: HepG2; experiment: Antiproliferative activity against human HepG2 cells after 48 hrs by MTT assay; format: functional, cell-based; conditions: HepG2, 48 h
[2] = test system: LNCaP; experiment: Induction of apoptosis in human LNCAP cells assessed as early apoptotic cells at IC50 after 24 hrs using annexin V-FITC/PI staining by flow cytometric analysis (reference value: 1.24%); format: functional
[3] = test system: PC-3; experiment: Cell cycle arrest in human PC3 cells assessed as accumulation at G1/G0 phase at IC50 after 24 hrs by flow cytometry analysis (reference value: 70%); format: functional
[4] = test system: LNCaP; experiment: Antiproliferative activity against human LNCAP cells after 48 hrs by MTT assay in presence of CB1 antagonist SR141716; format: functional, cell-based
[5] = test system: PC-3; experiment: Cell cycle arrest in human PC3 cells assessed as accumulation at S phase at IC50 after 24 hrs by flow cytometry analysis (reference value: 6.97%); format: functional
[6] = test system: PC-3; experiment: Induction of apoptosis in human PC3 cells assessed as late apoptotic cells at IC50 after 24 hrs using annexin V-FITC/PI staining by flow cytometric analysis (reference value: 4.45%); format: functional
[7] = test system: LNCaP; experiment: Cell cycle arrest in human LNCAP cells assessed as accumulation at G1/G0 phase at IC50 after 24 hrs by flow cytometry analysis (reference value: 91.30%); format: functional
[8] = test system: LNCaP; experiment: Cell cycle arrest in human LNCAP cells assessed as accumulation at S phase at IC50 after 24 hrs by flow cytometry analysis (reference value: 3.90%); format: functional
[9] = test system: LNCaP; experiment: Antitumor activity against human LNCAP cells xenografted in BALB/c OlaHsd-Foxn1nu mouse assessed as tumor growth inhibition at 2 mg/kg, ip qd for 15 days; format: functional, organism-based; parameters: dose 2 mg/kg
[10] = test system: PC-3; experiment: Antitumor activity against human PC3 cells xenografted in BALB/c OlaHsd-Foxn1nu mouse assessed as tumor growth inhibition at 2 mg/kg, ip qd for 15 days; format: functional; conditions: PC-3, ip, 360 h, route intraperitoneal, read-out: TGI
[11] = biological target: Cannabinoid receptor 2 (Homo sapiens, UniProt P34972); experiment: Displacement of [3H]CP55940 from human cannabinoid CB2 receptor expressed in HEK293 EBNA cells after 90 mins by liquid scintillation counting; format: cell-based
[12] = test system: PC-3; experiment: Induction of apoptosis in human PC3 cells assessed as early apoptotic cells at IC50 after 24 hrs using annexin V-FITC/PI staining by flow cytometric analysis (reference value: 1.51%); format: functional
[13] = test system: LNCaP; experiment: Antiproliferative activity against human LNCAP cells after 48 hrs by MTT assay; format: functional, cell-based
[14] = test system: LNCaP; experiment: Induction of apoptosis in human LNCAP cells assessed as viable cells at IC50 after 24 hrs using annexin V-FITC/PI staining by flow cytometric analysis (reference value: 12.33%); format: functional
[15] = test system: PC-3; experiment: Antiproliferative activity against human PC3 cells after 48 hrs by MTT assay; format: functional, cell-based; conditions: PC-3, 48 h
[16] = test system: LNCaP; experiment: Antiproliferative activity against human LNCAP cells after 48 hrs by MTT assay in presence of PPARgamma antagonist GW9662; format: functional, cell-based
[17] = test system: PC-3; experiment: Cell cycle arrest in human PC3 cells assessed as accumulation at sub-G0 phase at IC50 after 24 hrs by flow cytometry analysis (reference value: 0.12%); format: functional
[18] = test system: LNCaP; experiment: Cell cycle arrest in human LNCAP cells assessed as accumulation at sub-G0 phase at IC50 after 24 hrs by flow cytometry analysis (reference value: 0.18%); format: functional
[19] = test system: LNCaP; experiment: Cell cycle arrest in human LNCAP cells assessed as accumulation at G2 phase at IC50 after 24 hrs by flow cytometry analysis (reference value: 5.62%); format: functional
[20] = test system: PC-3; experiment: Cell cycle arrest in human PC3 cells assessed as accumulation at G2 phase at IC50 after 24 hrs by flow cytometry analysis (reference value: 22.90%); format: functional
[21] = test system: LNCaP; experiment: Induction of apoptosis in human LNCAP cells assessed as late apoptotic cells at IC50 after 24 hrs using annexin V-FITC/PI staining by flow cytometric analysis (reference value: 2.96%); format: functional
[22] = test system: LNCaP; experiment: Antiproliferative activity against human LNCAP cells after 48 hrs by MTT assay in presence of CB2 antagonist SR144528; format: functional, cell-based
[23] = test system: PC-3; experiment: Induction of apoptosis in human PC3 cells assessed as viable cells at IC50 after 24 hrs using annexin V-FITC/PI staining by flow cytometric analysis (reference value: 9.96%); format: functional
[24] = biological target: Cannabinoid receptor 1 (Homo sapiens, UniProt P21554); experiment: Displacement of [3H]CP55940 from human cannabinoid CB1 receptor expressed in HEK293 EBNA cells after 90 mins by liquid scintillation counting; format: cell-based
[25] = test system: LNCaP; experiment: Antiproliferative activity against human LNCAP cells after 48 hrs by MTT assay in presence of antioxidant N-acetylcysteine; format: functional, cell-based

Chain of Cannabinoid receptor 1 (P21554 whole entry): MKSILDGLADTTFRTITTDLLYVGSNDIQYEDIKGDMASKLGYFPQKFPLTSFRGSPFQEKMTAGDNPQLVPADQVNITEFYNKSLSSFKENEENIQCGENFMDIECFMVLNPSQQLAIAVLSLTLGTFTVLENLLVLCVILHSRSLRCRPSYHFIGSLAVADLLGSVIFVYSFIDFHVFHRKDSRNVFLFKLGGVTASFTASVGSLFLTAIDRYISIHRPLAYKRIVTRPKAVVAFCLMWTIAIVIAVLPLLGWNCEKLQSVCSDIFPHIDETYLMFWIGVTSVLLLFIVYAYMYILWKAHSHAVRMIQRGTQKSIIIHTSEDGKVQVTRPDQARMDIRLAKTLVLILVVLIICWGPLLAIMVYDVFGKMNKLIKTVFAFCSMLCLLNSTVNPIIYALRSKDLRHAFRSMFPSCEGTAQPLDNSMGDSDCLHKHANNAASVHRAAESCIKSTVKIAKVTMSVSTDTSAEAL
Chain of Cannabinoid receptor 2 (P34972 whole entry): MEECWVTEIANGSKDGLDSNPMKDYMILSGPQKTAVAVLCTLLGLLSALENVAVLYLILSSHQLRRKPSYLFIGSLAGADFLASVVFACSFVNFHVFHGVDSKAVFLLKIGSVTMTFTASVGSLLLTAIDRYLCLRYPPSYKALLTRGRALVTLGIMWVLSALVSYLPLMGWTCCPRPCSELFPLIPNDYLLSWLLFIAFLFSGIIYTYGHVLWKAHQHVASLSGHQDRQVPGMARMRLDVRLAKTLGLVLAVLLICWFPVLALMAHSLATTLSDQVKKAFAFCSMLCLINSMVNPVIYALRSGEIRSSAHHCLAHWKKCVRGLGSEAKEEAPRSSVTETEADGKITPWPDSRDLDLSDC

In the case of CCCCCCC(C)(C)C1=CC(=O)C2=C(OC(C)(C)c3c[nH]nc32)C1=O, the IC50 [1] is reported as 30 µM, the Activity [2] is reported as 5.86% and the Activity [3] is reported as 58.68%. The Activity [4] was “inactive”, the Activity [5] was 10.09% and the Activity [6] was 6.91%. The Activity [7] was 74.68%, the Activity [8] was 7.09% and the TGI [9] was “Active”. The inhibition in vivo at 2 mg/kg [10] was 40%, the Ki [11] was 0.134 µM and the Activity [12] was 3.98%. For the same compound, the IC50 [13] was 15 µM, the Activity [14] was 12.52% and the IC50 [15] was 15 µM. The Activity [16] was “inactive”, the Activity [17] was 2.3% and the Activity [18] was 8.9%. The Activity [19] was 9.24%, the Activity [20] was 30.24% and the Activity [21] was 9.59%. For the same compound, the Activity [22] was “Active”, the Activity [23] was 5.97% and the Ki [24] was 0.324 µM. The Activity [25] was “inactive”.
CCCCCCC(C)(C)C1=CC(=O)C2=C(OC(C)(C)c3cn(CC)nc32)C1=O gave a Ki [11] of 3.66 µM and a Ki [24] of 8.52 µM.
CCCCCCC(C)(C)C1=CC(=O)C2=C(OC(C)(C)c3cn(C)nc32)C1=O gave a Ki [11] of 0.672 µM and a Ki [24] of 14.2 µM.
